# Reference: ChEMBL document CHEMBL1149294, “A novel class of inhibitors of peptide deformylase discovered through high-throughput screening and virtual ligand screening” (J Med Chem, 2004)
# pIC50: −log10 of the molar value. Activity calls are given as the source filed them. The calls are words filed in the database; no cut-off is given here.
# Biological target: T1, Peptide deformylase (Escherichia coli, UniProt Q9JN24)
# T1 sequence (Q9JN24 whole entry): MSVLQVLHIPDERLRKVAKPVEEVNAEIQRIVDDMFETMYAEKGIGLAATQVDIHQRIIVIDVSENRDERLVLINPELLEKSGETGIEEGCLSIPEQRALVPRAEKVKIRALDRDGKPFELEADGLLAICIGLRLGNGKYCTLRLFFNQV
# Experiment: Inhibition of Escherichia coli PDF
row,pIC50,Structure (SMILES)
1,< 4.52,CC(/C=C1\SC(=S)N(CCCCCC(=O)O)C1=O)=C\c1ccccc1
2,< 4.52,CCOc1cc(/C=C2\SC(=S)N(CCCCCC(=O)O)C2=O)ccc1O
3,< 4.52,Cc1cc(/C=C2\SC(=S)N(CCCCCC(=O)O)C2=O)c(C)n1-c1ccc(Br)cc1
4,< 4.52,Cc1ccc(-c2nn(-c3ccccc3)cc2/C=C2\SC(=S)N(CC(=O)O)C2=O)cc1
5,< 4.52,O=C(O)CCCCCN1C(=O)/C(=C/c2ccc(-c3ccc(Cl)c(Cl)c3)o2)SC1=S
6,< 4.52,O=C(O)CCN1C(=O)/C(=C/c2cn(-c3ccccc3)nc2-c2ccccc2)SC1=S
7,< 4.52,COc1ccc(/C=C2\SC(=S)N(CCCCCC(=O)O)C2=O)cc1Br
8,< 4.52,COc1ccccc1/C=C1\SC(=S)N(CCCCCC(=O)O)C1=O
9,< 4.52,Cc1cc(/C=C2\SC(=S)N(CCCCCC(=O)O)C2=O)c(C)n1-c1ccccc1
10,< 4.52,O=C(O)CCCCCN1C(=O)/C(=C/c2cn(-c3ccccc3)nc2-c2ccccc2)SC1=S
11,< 4.52,Cc1ccc(-c2nn(-c3ccccc3)cc2/C=C2\SC(=S)N(CCCCCC(=O)O)C2=O)o1
12,< 4.52,O=C(O)CCCCCN1C(=O)/C(=C/c2cn(-c3ccccc3)nc2-c2cccs2)SC1=S
13,< 4.52,Cc1nn(-c2ccccc2)c(Cl)c1/C=C1\SC(=S)N(CCCCCC(=O)O)C1=O
14,< 4.52,Cc1nn(CCC#N)cc1/C=C1\SC(=S)N(CCCCCC(=O)O)C1=O
15,< 4.52,O=C(O)CCCCCN1C(=O)/C(=C/c2ccc(F)cc2)SC1=S
16,< 4.52,O=C(O)CCCCCN1C(=O)/C(=C/c2c[nH]c3ccccc23)SC1=S

# Tested on: Glycine max
# Experiment: Inhibition of soybean PDF using PDF/FDH coupled spectrophotometric assay
row,Activity,Structure (SMILES)
1,inactive,COC(=O)CCCCCN1C(=O)/C(=C/c2cc(C)n(-c3ccccc3)c2C)SC1=S
2,inactive,Cc1ccc(-c2nn(-c3ccccc3)cc2/C=C2\SC(=S)N(CC(=O)O)C2=O)cc1
3,inactive,O=C(O)CCN1C(=O)/C(=C/c2cn(-c3ccccc3)nc2-c2ccccc2)SC1=S
